Measured values from patent publication US8349835B2, “Aromatic ring fused triazine derivatives and uses thereof” (Shenyang Pharmaceutical University, priority 2008, dated 2013).

Key:
Rat aortic ring = assay: Rat Aortic Ring Assay; assay type: cell-based; conditions: for Rat Aortic Ring Assay (10 ug/ml), result in words: observed on the sixth day; for inhibition at 10 µg/mL: Rattus norvegicus, 10 ug/ml, compared with blank control, sixth day
From the text: Rat Aortic Ring Assay • 1) 6 week old SD […] (Sprague Dawley) were selected for the experiments. Cleaned abdominal skin with 75% ethanol to disinfect, and then anesthetized the mice with ether, • 2) Carefully removed the abdominal aortas and transferred the aortas to normal saline. Excessive vascular tissues were carefully removed with scissors. • 3) The aortas were rinsed with normal saline until no blood stain remained. • 4) Sectioned the aortas into one millimeter depth arterial slices with ophthalmological scissors. • 5) Add 50 μL pre-thawed Matrigel to each well of the pre-cooled 96 well cell culture plates, and embedded the ring-shaped mouse aortas in collagen gel. • 6) Incubated for 60 minutes at 37° C. to solidificate the gel. • 7) Added DMEM culture solution containing 10% FBS, along with different concentrations of the selected compounds into the wells and cultured in the incubator. Every compound was repeated in no less than 3 wells. • 8) Replaced with the fresh medium and changed the medicine once on the third day. • 9) Took out the pates on the sixth day, and observed the vascular growth with Microscope (OLYMPUS, DP70, Japan) and took photographs(×100). Randomly chose 3 arterial rings to photograph and calculated the area covered by micro-vascular with Image Pro Plus software. The inhibition rate is calculated as:
[formula] • Evaluation criteria: ⋆inhibition rate[…]; ⋆⋆inhibition rate 60-90%; ⋆⋆⋆inhibition rate>90%.

VEGFR-2 = VEGFR-2 (Homo sapiens, UniProt P35968); assay: VEGFR-2 inhibition rate test (kinase assay kit, colorimetric ELISA); conditions: concentration not given
[1] = system: Microvascular Endothelial Cells (MVEC); assay: MTT growth inhibition of MVEC; assay type: cell-based; conditions: Endothelial cell, 96 h, 4 days culture with drug, read-out: IG50 on inhibiting growth of MVEC
Method: In Vitro Anti-Tumor Activity Test
Put cell suspension into centrifugal tubes with a pipette under sterile conditions, then the cell suspension was centrifuged for 3 minutes at 1300 rpm. Discarded the supernatant lightly and added fresh culture medium. Mixed the cells by pipetting, then transferred the cells into culture flasks, and put them into the CO2 incubator. Changed the culture medium once after 24 hours.
Human prostate cancer cells (DU145, PC-3) were cultured in a medium containing RPMI1640 basic medium supplemented with 10% heat-inactivated FBS, 100 IU/mL penicillin, 100 μg/mL streptomycin and 1 mmol/L L-glutamine. Human breast carcinoma cells (T47D, MDA-MB231) were cultured in a medium containing RPM11640 basic medium supplemented with 10% heat-inactivated FBS, 5 μg/mL insulin, 100 IU/mL penicillin, 100 μg/mL streptomycin and 1 mmol/L L-glutamine. Human breast carcinoma cells (MCF-7) were cultured in a medium containing DMEM basic medium supplemented with 10% heat-inactivated FBS, 5 μg/mL insulin, 100 IU/mL penicillin, 100 μg/mL streptomycin and […]. Murine Lewis lung cancer cells (LL/2), murine melanoma cells (B16FD) and Microvascular Endothelial Cells (MVEC) were cultured in a medium containing DMEM basic medium supplemented with 10% heat-inactivated FBS, 4.5 g/L glucose, 1.5 g/L NaHCO3, 100 IU/mL penicillin, 100 μg/mL streptomycin and 4 mmol/L L-glutamine. All these cell lines were incubated at 37° C. biochemical incubator with 5% CO2 saturated humidity.
After resuscitation, the cells were passed for 2-3 generations till they became stable, then they were used for the experiments. Each passage was based on the standard that all cells were spread over the bottoms of culture flasks.
Cells were digested off from the bottoms of culture flasks with trypsin (0.25%). The cell dissociation buffer was transferred into centrifuge tubes, added medium to stop the digestion, and centrifuged for 3 minutes at 1300 rpm. Discarded the supernatant lightly and added fresh culture medium (5 mL). Mixed the cells by pipetting, then added 10 μL of the cell suspension into the cell counting plate, and adjusted the cell concentration to 2×10^4 cells/mL. Added 100 μL of the cell suspension to all wells on the 96 well plates, except A1 well as the blank control. Put the plates into the biochemical incubator for 24 hours and to make sure the cells grew along the walls.
The drugs were dissolved in 80 mmol/L DMSO first, and then diluted the drugs with ethanol to 8 mmol/L. The solution was further diluted with the culture medium to different concentrations as 160 μmol/L, 120 μmol/L, 80 μmol/L, 40 μmol/L, 20 μmol/L and 10 μmol/L. Added 100 μL of the drug solution to each well on the 96 well plates. Therefore, the final concentrations of the drugs that were added to the cells were 80 μmol/L, 40 μmol/L, 20 μmol/L, 10 μmol/L and 5 μmol/L, and each concentration were repeated in three parallel wells. Put the culture plates into the biochemical incubator to culture continuously for 4 days.
Added 50 μL MTT liquids (2 mg/mL) into each well, put the culture plates into the biochemical incubator for 4 h, discarded MTT liquids (TCC), added 200 μL DMSO, then oscillated for 10 minutes on the magnetic oscillator to make sure that the survived cells and the reaction product of MTT were fully dissolved. Detected and recorded the absorbance (OD) values of each well at the wavelength of 570 nm using the microplate reader. The OD values of cells without tested drugs were used as control. The cell growth inhibition rates under each drug concentration were calculated by the following formula. […] Inhibition rate of growth(%)=(1−The absorbance(OD)of cells with tested drugs/The absorbance(OD)of the blank control group)×100%
The absorbance (OD) of cells with tested drugs: OD value is measured with the test drugs.
The absorbance (OD) of the blank control group: OD value is measured without the test drugs. […]

Chain of VEGFR-2 (P35968 20-1356): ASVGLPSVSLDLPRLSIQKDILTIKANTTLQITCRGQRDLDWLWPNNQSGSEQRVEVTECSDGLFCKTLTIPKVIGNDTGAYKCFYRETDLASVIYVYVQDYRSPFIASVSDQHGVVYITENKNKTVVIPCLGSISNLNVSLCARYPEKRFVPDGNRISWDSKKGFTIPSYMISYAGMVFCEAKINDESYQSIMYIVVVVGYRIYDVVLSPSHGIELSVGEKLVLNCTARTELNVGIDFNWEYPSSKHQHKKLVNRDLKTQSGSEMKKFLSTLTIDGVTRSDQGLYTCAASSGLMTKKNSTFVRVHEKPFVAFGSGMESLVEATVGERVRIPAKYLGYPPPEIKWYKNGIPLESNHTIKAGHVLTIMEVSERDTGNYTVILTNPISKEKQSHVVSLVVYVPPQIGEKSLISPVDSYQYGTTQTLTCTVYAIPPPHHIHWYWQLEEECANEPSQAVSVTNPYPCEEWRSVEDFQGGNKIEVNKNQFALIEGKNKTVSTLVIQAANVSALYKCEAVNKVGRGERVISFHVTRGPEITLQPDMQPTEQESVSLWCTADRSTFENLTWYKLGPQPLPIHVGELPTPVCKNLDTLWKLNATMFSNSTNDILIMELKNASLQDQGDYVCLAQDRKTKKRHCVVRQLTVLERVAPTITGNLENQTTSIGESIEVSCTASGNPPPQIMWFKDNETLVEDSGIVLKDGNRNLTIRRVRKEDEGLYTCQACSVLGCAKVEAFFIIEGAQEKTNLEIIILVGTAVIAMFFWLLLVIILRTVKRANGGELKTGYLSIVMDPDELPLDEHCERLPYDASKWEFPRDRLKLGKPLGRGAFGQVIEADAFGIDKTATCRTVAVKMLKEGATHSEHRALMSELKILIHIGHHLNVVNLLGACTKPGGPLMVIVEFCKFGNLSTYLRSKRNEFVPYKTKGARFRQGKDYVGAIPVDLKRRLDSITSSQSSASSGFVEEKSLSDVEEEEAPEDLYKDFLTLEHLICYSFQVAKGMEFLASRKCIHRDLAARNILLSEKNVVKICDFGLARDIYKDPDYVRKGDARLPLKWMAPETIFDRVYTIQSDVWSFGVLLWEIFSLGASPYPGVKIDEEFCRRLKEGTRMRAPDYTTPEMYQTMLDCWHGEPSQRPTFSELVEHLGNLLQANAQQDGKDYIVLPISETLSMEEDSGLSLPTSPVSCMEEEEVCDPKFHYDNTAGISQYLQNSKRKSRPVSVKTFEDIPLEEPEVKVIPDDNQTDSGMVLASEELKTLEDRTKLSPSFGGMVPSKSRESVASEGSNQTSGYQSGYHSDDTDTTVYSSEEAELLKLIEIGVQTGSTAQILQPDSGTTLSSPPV

Kinase inhibition rate (VEGFR-2) (VEGFR-2)	Structure (SMILES)	Rat Aortic Ring Assay (10 ug/ml), result in words (Rat aortic ring)	IC50 [1]	inhibition at 10 µg/mL (Rat aortic ring)
–	CCCCOc1cc2nnnc(Nc3ccc(Cl)c(Cl)c3)c2cc1OC [Example 15, 6-methoxy-7-n-butoxy-4-(3,4-dichloroanilino)-benzo[d][1,2,3]triazine]	–	15.5 µM	~30%
–	CCOc1cc2nnnc(Nc3ccc(Cl)c(Cl)c3)c2cc1OC [Example 32, 6-methoxy-7-ethoxy-4-(3,4-dichloroanilino)-benzo[d][1,2,3]triazine]	–	14.3 µM	–
–	CCOc1cc2nnnc(Nc3ccc(Cl)cc3)c2cc1OC [Example 33, 6-methoxy-7-ethoxy-4-(4-chloroanilino)-benzo[d][1,2,3]triazine]	–	26.5 µM	–
−21.65	CCCCCOc1cc2nnnc(Nc3ccc(Cl)c(Cl)c3)c2cc1OC [Example 48, 6-methoxy-7-pentyloxy-4-(3,4-dichloroanilino)-benzo[d][1,2,3]triazine]	–	16.9 µM	–
–	CCCCCOc1cc2nnnc(Nc3ccc(Cl)cc3)c2cc1OC [Example 49, 6-methoxy-7-pentyloxy-4-(4-chloroanilino)-benzo[d][1,2,3]triazine]	–	25.3 µM	–
−0.53	CCCCCOc1cc2nnnc(Nc3ccc(F)c(Cl)c3)c2cc1OC [Example 55, 6-methoxy-7-pentyloxy-4-(3-chloro-4-fluoroanilino)benzo[d][1,2,3]triazine]	–	14.8 µM	–
−3.74	CCCCCOc1cc2nnnc(Nc3ccc(F)c(C(F)(F)F)c3)c2cc1OC [Example 56, 6-methoxy-7-pentyloxy-4-(3-trifluoromethyl-4-fluoroanilino)-benzo[d][1,2,3]triazine]	–	16.3 µM	–
−9.97	COc1cc2c(Nc3cc(Cl)cc(Cl)c3)nnnc2cc1OCCCCl [Example 63, 6-methoxy-7-chloropropoxy-4-(3,5-dichloroanilino)-benzo[d][1,2,3]triazine]	–	28.8 µM	–
–	COc1cc2c(Nc3ccc(Cl)c(Cl)c3)nnnc2cc1OCCCCl [Example 65, 6-methoxy-7-chloropropoxy-4-(3,4-dichloroanilino)-benzo[d][1,2,3]triazine]	–	11 µM	–
−10.15	COc1cc2c(Nc3ccc(Cl)cc3)nnnc2cc1OCCCCl [Example 66, 6-methoxy-7-chloropropoxy-4-(4-chloroanilino)-benzo[d][1,2,3]triazine]	–	38.6 µM	–
−14.75	COc1cc2c(Nc3cccc(OC(F)(F)F)c3)nnnc2cc1OCCCCl [Example 69, 6-methoxy-7-chloropropoxy-4-(3-trifluoromethoxyanilino)-benzo[d][1,2,3]triazine]	–	24.9 µM	–
16.65	COc1cc2c(Nc3ccc(OC(F)(F)F)cc3)nnnc2cc1OCCCCl [Example 70, 6-methoxy-7-chloropropoxy-4-(4-trifluoromethoxyanilino)-benzo[d][1,2,3]triazine]	–	23.2 µM	> 50%
2.40	COc1cc2c(Nc3ccc(F)c(C(F)(F)F)c3)nnnc2cc1OCCCCl [Example 73, 6-methoxy-7-chloropropoxy-4-(3-trifluoromethyl-4-fluoroanilino)-benzo[d][1,2,3]triazine]	–	15.2 µM	–
–	COc1cc2c(Nc3ccc(C)cc3)nnnc2cc1OCCCCl [Example 77, 6-methoxy-7-chloropropoxy-4-(4-methylanilino)-benzo[d][1,2,3]triazine]	Micro-vascular growth was significantly inhibited, affecting cell	17.1 µM	–
15.87	Clc1ccc2nnnc(Nc3ccccc3)c2n1 [Example 78, 6-chloro-4-anilino-pyrido[3,2-d][1,2,3]triazine]	No significant inhibition in the previous 3 days, but vascular ring	10.7 µM	–
–	Fc1cc(Nc2nnnc3ccc(Cl)nc23)ccc1Br [Example 79, 6-chloro-4-(3-fluoro-4-bromoanilino)-pyrido[3,2-d][1,2,3]-triazine]	Almost complete inhibition (10 μg/mL), vascular ring was dead	9.56 µM	–
–	Clc1cc(Cl)cc(Nc2nnnc3ccc(Cl)nc23)c1 [Example 80, 6-chloro-4-(3,5-dichloroanilino)pyrido[3,2-d][1,2,3]triazine]	Almost complete inhibition (10 μg/mL), vascular ring was dead.	7.93 µM	–
−6.44	Fc1cc(F)cc(Nc2nnnc3ccc(Cl)nc23)c1 [Example 81, 6-chloro-4-(3,5-difluoroanilino)pyrido[3,2-d][1,2,3]triazine]	Almost complete inhibition (10 μg/mL), vascular ring was dead.	10.3 µM	–
–	Clc1ccc2nnnc(Nc3ccc(Cl)c(Cl)c3)c2n1 [Example 82, 6-chloro-4-(3,4-dichloroanilino)pyrido[3,2-d][1,2,3]triazine]	–	9.19 µM	> 80%
–	FC(F)(F)c1ccc(Nc2nnnc3ccc(Cl)nc23)cc1 [Example 85, 6-chloro-4-(4-trifluoromethylanilino)pyrido[3,2-d][1,2,3]triazine]	No significant inhibition	8.06 µM	–
–	FC(F)(F)Oc1ccc(Nc2nnnc3ccc(Cl)nc23)cc1 [Example 87, 6-chloro-4-(4-trifluoromethoxyanilino)pyrido[3,2-d][1,2,3]triazine]	Almost complete inhibition (10 μg/mL), vascular ring was dead	11.5 µM	–
−0.25	Fc1ccc(Nc2nnnc3ccc(Cl)nc23)cc1Cl [Example 89, 6-chloro-4-(3-chloro-4-fluoroanilino)pyrido[3,2-d][1,2,3]triazine]	–	9.85 µM	–
–	Fc1ccccc1Nc1nnnc2ccc(Cl)nc12 [Example 91, 6-chloro-4-(2-fluoroanilino)pyrido[3,2-d][1,2,3]triazine]	No significant inhibition	10.8 µM	–

Structure (SMILES)	Kinase inhibition rate (VEGFR-2) (VEGFR-2)	Rat Aortic Ring Assay (10 ug/ml), result in words (Rat aortic ring)	IC50 [1]	inhibition at 10 µg/mL (Rat aortic ring)
CCCCOc1cc2nnnc(Nc3cc(Cl)cc(Cl)c3)c2cc1OC [Example 13, 6-methoxy-7-n-butoxy-4-(3,5-dichloroanilino)-benzo[d][1,2,3]triazine]	−9.89	No significant inhibition	3.17 µM	–
CCCCOc1cc2nnnc(Nc3cccc(Br)c3)c2cc1OC [Example 25, 6-methoxy-7-n-butoxy-4-(3-bromoanilino)-benzo[d][1,2,3]triazine]	5.61	–	16.8 µM	–
